Tests used:
Format in all cases: cell-based, Streptomyces coelicolor
S. coelicolor LAG2 = assay: LC-MS analysis of peptidoglycan precursors, including time course after alanine addition
Procedure: In order to get more insights into the synthesis of vancomycin-sensitive (i.e., wild-type) or the alternate vancomycin-resistant peptidoglycan, the pool of peptidoglycan precursors was analyzed by Liquid Chromatography coupled to Mass Spectrometry (LC-MS). When cells produce wild-type PG, only the MurNac-pentapeptide with a D-Ala-D-Ala terminus are detected, while vancomycin-resistant PG precursors have a D-Ala-D-Lac terminus. To analyze the precursors produced in S. coelicolor M145 and its mutant derivatives LAG1 (Δddl) and LAG2 (Δddl vanS::IS466A) in the presence or absence of vancomycin, the strains were grown until exponential phase, after which the cultures were harvested, washed and the precursors extracted with 5% TCA. The supernatants were desalted, concentrated and analyzed by LC-MS (see Materials and Methods section).
(§1) To investigate what the effect would be of the addition of excess of D-Ala on the accumulation of wild-type precursors, a time-course experiment was performed to follow the effect of D-Ala addition on the ratio between wild-type and resistant precursors. Therefore, 300 ml liquid-grown NMMP cultures were supplemented with either D-Ala or L-Ala (control) at 50 mM end concentration, and 10 ml samples were collected prior to and 1, 5, 15, 30, 60, 120 and 180 minutes after the addition of either alanine stereoisomer. Samples were immediately filtered by vacuum filtration, washed in 0.9% NaCl, biomass scraped off the filter, added to a tube containing 5% TCA and samples prepared as described above. […] However, addition of 50 mM D-Ala triggered the production of small amounts of wt precursor (1%) within 1 minute. After 15 minutes, this amount had increased to 4%, which appeared to be close to the maximum, with levels of wt precursors never exceeding 5%.
(§2) For the precursor isolation and identification, a modification of the method described previously by Hong and colleagues (Hong et al., 2004) was used. 10 μg vancomycin was added to the strains at the moment of inoculation. The strains were grown in NMMP (1% (w/v) Mannitol, 50 mM MgCl2) until mid-log phase (OD-0.3-0.4) and mycelia were harvested by centrifugation at 4° C. and washed in 0.9% NaCl. The mycelium was extracted with 5% cold trichloric acid (TCA) for 30 minutes at 4° C. This was centrifuged and the supernatant desalted on a Sephadex G-25 column (Illustra NAP-10 Columns, GE Healthcare, Pittsburgh), and concentrated by rotary evaporation. The concentrated precursors were dissolved in HPLC-grade water and separated by LC-MS using a gradient of 0-20% acetonitrile in water with 0.1% TFA. The elution was monitored at 254 nm and monitored by the sizes eluted (1193.8-1195.3).
For the measurement over time, the protocol was adjusted in the following way: 300 ml NMMP cultures were grown until exponential phase, at which point a 10 ml sample was taken (sample t=0) and 50 mM of D-Ala or L-Ala was added, followed by further sampling after 1, 5, 15, 30, 60, 120 and 180 minutes. Samples were rapidly filtered with a vacuum pump and washed with 0.9% (w/v) NaCl, mycelia scraped off the filter and transferred to 5% TCA.

[1] = test system: S. coelicolor M145 ΔvanX (LAG3); assay: MIC of vancomycin on MM agar plates with added D-Ala; settings: M145 ΔvanX, 1000-fold lower D-Ala concentration than for M145
From the text: VanX effectively eradicates the D-Ala-D-Ala dipeptide, thereby counteracting the accumulation of wild-type precursors and supporting vancomycin resistance (Lessard and Walsh, 1999; Tan et al., 2002). Therefore, a vanX null mutant was created using a similar strategy as for ddl, replacing the coding region of vanX by the apramycin resistance cassette aacC4. The mutant was created in both the parental strain S. coelicolor M145 and in its ddl suppressor mutant LAG2, generating LAG3 (M145 ΔvanX) and LAG4 (M145 Δddl ΔvanX vanS::IS466A), respectively.
LAG4 produced 20% wt precursors prior to the addition of D-Ala.
(§3) Escherichia coli strains JM109 (Sambrook et al., 1989) and ET12567 (Kieser et al., 2000) were used for routine cloning procedures and for extracting non-methylated DNA, respectively. Cells of E. coli were grown in Luria-Berani broth (LB) at 37° C. Streptomyces coelicolor A3(2) M145 was the parent of all mutants described in this work. All media and routine Streptomyces techniques were carried out as described (Kieser et al., 2000). SFM (soy flour mannitol) agar plates were used for propagating S. coelicolor strains and to prepare spore suspensions. For liquid-grown cultures, S. coelicolor mycelia were grown in normal minimal media with phosphate (NMMP) supplemented with 1% (w/v) mannitol as the sole carbon source. The MIC of vancomycin against S. coelicolor M145 and its mutant derivatives were determined by growth on minimal media (MM) agar plates supplemented with 1% mannitol as the sole carbon source, and 0, 2, 4, 8, 16, 32, 64, 128, 256 or 512 μg/ml vancomycin, in combination with 0, 1, 5, 10 or 50 mM of D-Ala or L-Ala. The vanX deletion mutants have been tested with 1, 5, 10, 50 and 100 μM D-Ala and L-Ala.

[2] = test system: S. coelicolor LAG4 (LAG2 ΔvanX); assay: LC-MS analysis of peptidoglycan precursors, time course after D-Ala addition
Procedure: as §1
as §2, with “(1193.8-1195.3). […]” for “(1193.8-1195.3).”

[3] = test system: S. coelicolor LAG2 (ddl suppressor mutant); assay: MIC of vancomycin on MM agar plates with added D-Ala or L-Ala; settings: LAG2, L-Ala (control)
Procedure: VanS is the sensory kinase of a two-component system formed with VanR, and it has been shown previously that certain mutations in vanS will constitutively upregulate the vancomycin resistance cluster, explaining the viability of strain LAG2 in the absence of vancomycin.
as §3

S. coelicolor M145 = assay: as above; settings: M145, up to 50 mg/ml L-Ala (control)
Procedure: The naturally vancomycin-resistant model organism S. coelicolor M145 was used as the initial test system. The strain was grown on solid minimal medium (MM) agar plates with increasing amounts of D-Ala and vancomycin. D-Ala was thereby added in concentrations of 5, 10 and 50 mM and the effect on the MIC of vancomycin assessed. As a first control, L-Ala was added and, as a second control, no amino acids were added. […] This was not altered when the culture media were supplemented with up to 50 mg/ml L-Ala (Table 1 and FIG. 6).
as §3

Structure (SMILES) | wt precursor (S. coelicolor LAG2; LAG2, 50 mM D-Ala, after 15 minutes) [%] | wt precursor, maximum level (S. coelicolor LAG2; LAG2, 50 mM D-Ala, up to 180 minutes) [%] | wt precursor (S. coelicolor LAG2; LAG2, 50 mM D-Ala, within 1 minute) [%] | stronger reduction of the MIC of vancomycin as compared to M145 [1] [fold] | wild-type precursor ([2]; LAG4, 3 hours after addition of D-Ala) [%] | wild-type precursor ([2]; LAG4, after addition of D-Ala, 1 and 5 minutes) [%] | wild-type precursor ([2]; LAG4, after addition of D-Ala, 15-30 minutes) [%] | production of wt precursors (S. coelicolor LAG2; LAG2, 50 mM L-Ala (control)) | effect of L-Ala on the MIC for vancomycin [3] | effect of L-Ala on the MIC of vancomycin (S. coelicolor M145)
C[C@@H](N)C(=O)O [D-Ala, D-alanine] | 4 | ≤ 5 | 1 | 4 | 80 | 25 | 40 | – | – | –
C[C@H](N)C(=O)O [L-Ala] | – | – | – | – | – | – | – | did not activate the production of detectable levels | did not affect the MIC | not altered

Source: US20190000789A1, “COMPOSITION AND METHOD FOR TREATING INFECTIONS CAUSED BY VANCOMYCIN-RESISTANT INFECTIOUS AGENTS IN A SUBJECT” (priority 2015, published 2019)
